Patent publication US11292773B2, “Small molecule inhibitors of BCL-2-associated death promoter (BAD) phosphorylation” (NATIONAL UNIVERSITY OF SINGAPORE, priority 2017, dated 2022)
“Also recorded” adds a separate entry of the source.

Tests used:
[1] = tested on: carcinoma cell lines (mammary, endometrial, ovarian, liver, colon, prostate, pancreatic); test: ApoTox-Glo Triplex assay (viability, caspase 3/7, cytotoxicity) in carcinoma cell lines; type: cell-based, human; details: all tested cancer cell lines
Source text: (§1) NPB was subsequently evaluated against panel of normal immortalized mammary epithelial cells (MCF10A and MCF12A), normal hepatocytes (LO2), mammary carcinoma (BT549, MDA-MB-231, MCF7, T47D, BT474), endometrial cancer (Ishikawa, Ecc1, RL95-2, AN3), ovarian cancer (SK-OV-3, OVCAR-2, Caov-3, HEY C2, Ovca433), liver cancer (Hep3B, H2P, H2M), colon cancer (HCT116, DLD-1, Caco-2), prostate cancer (PC3, LNCaP, DU145) and pancreatic cancer (AsPC-1, BxPC-3) cells. […] Using a Laplacian-modified Naïve Bayes classifier, NPB is subjected to in silico analysis which anticipates the human target of NPB as BAD protein.
(§2) Effect of NPB (5 μM) on carcinoma cell viability including, mammary, endometrial, ovarian, liver, colon, prostate, and pancreatic carcinoma cell lines. (A) Cell viability (B) caspase 3/7 activities and (C) cytotoxicity were evaluated using ApoTox-GIo™ Triplex Assay Kit as described in methodology. Statistical significance was assessed by an unpaired two-tailed Student's t-test using GraphPad Prism5. The column represents mean of triplicate determinations; bars, ±SD. **P<0.001, *P<0.05. Note: RFU, relative fluorescence unit; RLU, relative luminescence unit, #; non-transformed, immortalized epithelial cells; MB-231, MDA-MB-231. […]

[2] = tested on: normal hepatocytes (LO2) and immortalized mammary epithelial cells (MCF10A and MCF12A); test: Activity on normal immortalized cells; type: cell-based, human
Source text: as §1, §2

MCF7 cells = test: Annexin V and propidium iodide apoptosis assay (FACS); type: cell-based, human; details: about 24 hours, dose dependent manner
Description: Phosphatidylserine exposure and cell death are assessed by FACS analysis using Annexin-V-FLUOS Staining Kit (Life Technologies, Singapore) and PI-stained cells. Briefly, 1×10^5 MCF cells/well (190 μL/well) are seeded in 6-well plates and incubated with different concentrations of NPB for about 24 hours and DMSO treated samples are used as control. Cells are then washed with Annexin V binding buffer (10 mM HEPES/NaOH, pH7.4, 140 mM NaCl, 2.5 mM CaCl2), stained with Annexin V FITC for about 30 minutes at room temperature in the dark, then washed again and re-suspended in Annexin V binding buffer containing PI. Samples are analyzed immediately on a BD FACSAria Cell Sorter (BD Biosciences, San Jose, Calif.).
Loss of membrane integrity and translocation of phosphatidylserine to outer leaflet of plasma membrane are the early events of apoptosis which can be detected using FITC conjugated annexin-V and propidium iodide staining. It is observed that NPB induces apoptosis in MCF7 cells using FITC-annexin V and propidium iodide. On treatment with NPB, increase in both early (PI negative, FITC-Annexin V positive) and late apoptotic cells (PI positive, FITC-Annexin V positive) is observed in a dose dependent manner as shown in FIG. 13A.

[3] = tested on: various kinases in MCF7 cells; test: Human Phospho-Kinase Antibody Array; type: cell-based; details: NPB 10 μM, 12 h, vs DMSO
Description: (A) Western blot analysis was used to assess the level of BAD Ser99 phosphorylation of pBAD, BAD, pAKT, and AKT in MCF7 cells after an increasing period of treatment with NPB (10 μM). Soluble whole cell extracts were run on an SDS-PAGE and immunoblotted as described in methodology. The sizes of detected protein bands in kDa are shown on the left side. (B) Kinases and phosphorylated substrates were detected using a Western Blot array (Proteome Profiler Human Phospho-Kinase Array Kit. MCF7 cells treated with NPB (10 μM) or DMSO for 12 h at 37° C. before preparation of cell lysate. Mean pixel density was analysed using ImageJ software and is represented below.
To elucidate the possibility that NPB decreased hBAD Ser99 phosphorylation by modulation of kinase activity, we assessed the effects of NPB on various kinases using Human Phospho-Kinase Antibody Array Kit from R&D Systems.

O=C(NC1CCCC1)c1cccc(C(c2ccccc2O)N2CCN(c3cccc(Cl)c3Cl)CC2)c1 (stereo not shown) [NPB, N-cyclopentyl-3-((4-(2,3-dichlorophenyl)piperazin-1-yl)(2-hydroxyphenyl)methyl) benzamide]
apoptosis in cancer cell lines [1]: significantly enhanced; also recorded: induce apoptotic cell death | activity / cytotoxic effect on normal cells [2]: no substantial activity; also recorded: did not have cytotoxic effect | early and late apoptotic cells (FITC-Annexin V / PI) (MCF7 cells): increase | kinase activity or phosphorylated substrates [3]: No significant changes
